For one data set, the system named is Hsp70. The experiment in a line: Hsp70 expression-inducing activity in the presence of IL-1β stimulation (western blotting). Type of data set: cell-based. As to conditions: human normal articular chondrocytes, 10 ng/ml IL-1β, 2 days; FIG. 3. The protocol:
In an embodiment of the step (2), the heat shock protein expression-inducing activity of a test compound was measured using a cell capable of expressing a heat shock protein. Hsp70 was used as the heat shock protein.
Human normal articular chondrocytes (manufactured by Clonetics Corporation) were grown by monolayer culture in a growth medium for articular chondrocytes (CGM, manufactured by Clonetics Corporation) and then suspended to 2.2×10^4 cells/ml in a 1:1 mixture of Dulbecco's modified Eagle's medium/Ham F12 medium. The cell culture was inoculated into a 12-well plate (manufactured by Asahi Techno Glass Corporation) by 3 ml per each well, followed by incubation at 37° C. for a day under 5% CO2. […]
After completion of the electrophoresis, the proteins in the gel were adsorbed onto a nitrocellulose membrane (Hybond-ECL; manufactured by Amersham Pharmacia Biotech Inc.) using HorizBlot (manufactured by Atto Co.). Each protein level was measured by western blotting using anti-Hsp70 antibody (manufactured by Transduction Laboratories) or anti-β-actin antibody (manufactured by Sigma, Inc.) as a primary antibody and horseradish peroxidase-labeled anti-mouse IgG antibody (manufactured by Kirkegaard & Perry Laboratories) as a secondary antibody. β-Actin was used to verify adsorption of the proteins onto the nitrocellulose membrane.

In data set [1] the test system is human normal articular chondrocytes. The experiment in a line: Cell protecting activity against NOR3-induced apoptosis (MTT). Type of data set: cell-based. To be noted: 10 ng/ml IL-1β, 110 μM NOR3, human normal articular chondrocytes; FIG. 6. The protocol: First, human normal articular chondrocytes were suspended to 4×10^4 cells/ml in a growth medium for articular chondrocytes. The cell culture was inoculated into a 96-well plate, followed by incubation at 37° C. for a day under 5% CO2. The medium was exchanged to a 1:1 mixture of Dulbecco's modified Eagle's medium/Ham F12 medium. The test compound and 10 ng/ml of […] were added to the medium, followed by further incubation at 37° C. for a day under 5% CO2. Next, 110 μM nitrogen monoxide-releasing reagent, i.e., (±)-(E)-4-ethyl-2-[(E)-hydroximino]-5-nitro-3-hexenamide (NOR3; manufactured by Dojindo) was added and the mixture was incubated for a day to induce apoptosis of the cells. After completion of the incubation, a viability of the cells was determined using 3-(4,5-dimethylthiazol-2-yl)-2,5-diphenyltetrazorium bromide (MTT; manufactured by Dojindo). […] Compound A was verified to have an excellent cell protecting activity.

Data set [2] shares this test system. The experiment in a line: Cytotoxicity (cell viability, WST-8). It is filed as cell-based. To be noted: for cell viability (WST-8): 2 days, FIG. 7. The protocol: First, human normal articular chondrocytes were suspended to 5×10^4 cells/ml in a growth medium for articular chondrocytes. The cell culture was inoculated into a 96-well plate, followed by incubation at 37° C. for a day under 5% CO2. The test compound was added to the medium, followed by incubation at 37° C. for further 2 days under 5% CO2.

Another data set deals with T1, His-hHsp90α (Homo sapiens, UniProt P07900).
T1 construct: the Hsp90α coding region was amplified from a human skeletal complementary DNA (cDNA) library; His tag (N); made in house; host or cells: Escherichia coli BL21 (DE3), plasmid pET28b-hHsp90α
The experiment in a line: Inhibition of binding of His-hHsp90α to immobilized Compound B (SDS-PAGE, silver stain). As to conditions: various concentrations of test compound; FIG. 1.

The next data set deals with T2, His2-hHsp90α protein (Homo sapiens, UniProt P07900).
T2 construct: the hHsp90α gene was excised from pET28b-hHsp90α using the BamHI cleavage site and the Bpu1102I cleavage site; made in house; host or cells: Escherichia coli BL21 (DE3), plasmid pET15b-hHsp90α
The experiment in a line: Inhibition of binding of [3H]-Compound A to immobilized His2-hHsp90α (SPA beads). As to conditions: 40 nM [3H]-Compound A, various concentrations of test compound; FIG. 2.

In a further data set the target is T3, Hsp90/HSF-1 complex (Homo sapiens, UniProt P07900).
T3 construct: host or cells: human normal articular chondrocytes (lysate)
The experiment in a line: Hsp90/HSF-1 complex disrupting activity (immunoprecipitation from chondrocyte lysate, western blotting). As to conditions: 1 μM compound, 30 minutes, FIG. 4, lane 3. Type of data set: biochemical. The protocol:
In another embodiment of the step (2), the activity of a test compound to disrupt the Hsp90/HSF-1 complex was measured. The substance having the activity to disrupt Hsp90/HSF-1 complex is expected to show the heat shock protein expression-inducing activity.
Human normal articular chondrocytes (manufactured by Clonetics) were washed with PBS and dissolved in RIPA buffer solution (50 mM Tris-HCl, pH 8.0, 150 mM NaCl, 1% NP-40, 0.1% SDS and 0.5% deoxycholic acid) containing a proteinase inhibitor (Complete; Boehringer Mannheim). After the solution was centrifuged at 16,000×g for 10 minutes, the supernatant was used as the lysate containing the Hsp90/HSF-1 complex. […]
After completion of the electrophoresis, the proteins in the gel were adsorbed onto a nitrocellulose membrane (Hybond-ECL; manufactured by Amersham Pharmacia Biotech Inc.) using HorizBlot (manufactured by Atto Co.). Each protein level was measured by western blotting using anti-HSF-1 antibody (manufactured by StressGen) or anti-Hsp90 antibody (manufactured by Transduction Laboratories) as a primary antibody and horseradish peroxidase-labeled anti-rabbit IgG antibody (manufactured by Cell Signaling Technology) or horseradish peroxidase-labeled anti-mouse IgG antibody (manufactured by Kirkegasrd & Perry Laboratories) as a secondary antibody.

Data set [3] concerns Hsp90 client protein such as glucocorticoid receptor, Akt, cyclin dependent kinase 4. Put plainly: Hsp90 client protein degradation-inducing activity (western blotting). It is filed as cell-based, human.
Protocol: Human normal articular chondrocytes were suspended to 0.5×10^5 cells/ml in a growth medium for articular chondrocytes. The cell culture was inoculated into a 6-well plate (manufactured by Falcon Co., Ltd.) by 2 ml per each well, followed by incubation at 37° C. for a day under 5% CO2. The medium was exchanged to a 1:1 mixture of Dulbecco's modified Eagle's medium/Ham F12 medium, followed by further incubation at 37° C. for a day under 5% CO2.
The test compound was added to the culture medium and the cells were further incubated for about 18 hours at 37° C. under 5% CO2. After completion of the incubation, the cells were washed once with phosphate-buffered saline (PBS) and 200 μl of a cell lysate buffer (10 mM Tris(hydroxymethyl)aminomethane, pH 7.4, 150 mM NaCl, 1 mM EDTA.2Na, 1 mM EGTA, 0.5 mM (p-aminophenyl)methanesulfonyl fluoride hydrochloride, 200 μM sodium β-glycerophosphate n-hydrate, 20 mM NaF, 2 mM sodium diphosphate decahydrate, 10 μg/ml aprotinin, 10 μg/ml leupeptin, 1% Triton X-100, 0.5% Nonidet P40, 0.1% SDS and 1 mM o-vanadate) was added thereto. After the cell debris was scraped from the plate using a cell scraper, the cell lysate buffer was recovered. The recovered cell lysate buffer was mixed with the equal volume of a sample buffer (Tris-SDS-ME Sample Buffer; manufactured by Daiichi Pure Chemicals). […]

The structures appear in SMILES notation.

Protocol for His-hHsp90α: In an embodiment of the step (1) in the screening method of the invention, the steps of measuring and comparing (i) the binding level of an immobilized imidazothiazine derivative to Hsp90 in the absence of a test compound and (ii) the binding level of an immobilized imidazothiazine derivative to Hsp90 in the presence of a test compound, were performed as follows.
Purified human Hsp90α protein (His-hHsp90α) tagged with histidine at the N terminus through using Escherichia coli was employed as Hsp90.
First, 10 μg of His-hHsp90α was reacted with a test compound of various concentrations in 0.2 ml of a binding buffer (10 mM Tris-HCl, pH 7.5, 20% glycerol, 1 mM EDTA, 500 mM NaCl and 1 mM DTT) containing 0.5% DMF for 30 minutes.
Protocol for His2-hHsp90α protein: In another embodiment of the step (1) of the screening method according to the present invention, measuring and comparing (i) the binding level of immobilized Hsp90 to a labeled imidazothiazine derivative in the absence of a test compound and (ii) the binding level of immobilized Hsp90 to a labeled imidazothiazine derivative in the presence of a test compound were performed.
Purified human Hsp90α protein (His2-hHsp90a) tagged with histidine at the N terminus through using Escherichia coli was employed as Hsp90.
The mixture was reacted overnight at 4° C. in a 96-well LumiNunc plate (manufactured by Nunc, Inc.). The above procedure gave immobilized Hsp90 in which the His2-hHsp90α protein was bound to Ysi (2-5 μm) copper his-tag SPA beads via histidine tag.

Consider `COC1=C2C[C@@H](C)C[C@H](OC)[C@H](O)[C@@H](C)/C=C(\C)[C@H](OC(N)=O)[C@@H](OC)/C=C\C=C(/C)C(=O)NC(=CC1=O)C2=O` (relative stereo) [GA, [18S-(4E,5Z,8R*,9R*,10E,12R*,13S*,14R*,16S*)]-9-[(aminocarbonyl)oxy]-13-hydroxy-8,14,19-trimethoxy-4,10,12,16-tetramethyl-2-azabicyclo[16.3.1.]docosa-4,6,10,18,21-pentan-3,20,22-trion, reference compound], for which the Hsp70 protein level result in the data set on Hsp70 was “clearly increased”. The “apoptosis / cell viability after NOR3 (MTT)” value in data set [1] is reported as “decreased the cell viability”. Also, the “cell viability (WST-8)” value in data set [2] (at concentrations of 30 nM or higher) is “greatly decreased”.
Regarding `Cc1ccc(S(=O)(=O)/N=c2\[nH]c(=O)n3c(C)c(C)sc(SCCCC(F)(F)C(F)(F)F)c2-3)cc1` [Compound A, N-[(1Z)-5,6-dimethyl-3-oxo-8-[(4,4,5,5,5-pentafluoropentyl)sulfanyl]-2,3-dihydro-1H-imidazo[5,1-c][1,4]thiazin-1-ylidene]-4-methylbenzenesulfonamide], the “binding level of the His-hHsp90α protein to the immobilized Compound B” value at His-hHsp90α is given as “dose-dependently decreased”. In addition, the “binding level of the His2-hHsp90α protein to [3H]-compound A” value at His2-hHsp90α protein was “dose-dependently decreased”. Also, in the data set with Hsp70, the Hsp70 protein level result is recorded as “clearly increased”. At Hsp90/HSF-1 complex, the “co-precipitation of HSF-1 with Hsp90 (anti-Hsp90 antibody immunoprecipitation)” value was “not observed”. For the same molecule, in data set [3] (human normal articular chondrocytes, about 18 hours, at concentrations of 10 μM or less, FIG. 5), the “intracellular protein level of Hsp90 client protein (glucocorticoid receptor, Akt, cyclin dependent kinase 4)” value is reported as “did not affect”. Moreover, the “client protein degradation-inducing activity as compared to GA” value in data set [3] (ratio relative to GA) was “less than 1/1000”. The “apoptosis / cell viability after NOR3 (MTT)” value in data set [1] is “dose-dependently suppressed the apoptosis”. In addition, the “cell viability (WST-8)” value in data set [2] (at concentrations of 10 μM or less) is “did not affect”. In addition, the “cytotoxicity relative to that of GA” value in data set [2] (ratio relative to GA) was 1/300.
